This passage reports Kd results from patent US11319299B2, “Substituted carboxamides as inhibitors of WDR5 protein-protein binding” (PROPELLON THERAPEUTICS INC., priority 2016, dated 2022).

For this assay, the target named is WDR5 (Homo sapiens (Human), UniProt P61964). The experiment in a line: Surface Plasmon Resonance (SPR) assay, KD and residence time. Format: binding. The conditions noted are these: surface plasmon resonance (SPR); read-out: WDR5 binding affinity (KD).
In general, Kd refers to the free concentration of one partner at which half of the binding sites on the other are occupied at equilibrium, for simple one-to-one binding. `C[C@@H]1CN(c2cc(F)c(-c3csc(C(=O)N(C)C4CCCCC4)n3)cc2NC(=O)c2cn(C)c(=O)cc2C(F)(F)F)C[C@H](C)N1C` [Example 526, N-cyclohexyl-4-[2-fluoro-5-[[1-methyl-6-oxo-4-(trifluoromethyl)pyridine-3-carbonyl]amino]-4-[(3R,5S)-3,4,5-trimethylpiperazin-1-yl]phenyl]-N-methyl-1,3-thiazole-2-carboxamide]: the Kd is 4.89 nM.
Under `C[C@@H]1CN(c2cc(F)c(-c3csc(C(=O)N4CCOCC4)n3)cc2NC(=O)c2cn(C)c(=O)cc2C(F)(F)F)C[C@H](C)N1C` [Example 527, N-[4-fluoro-5-[2-(morpholine-4-carbonyl)-1,3-thiazol-4-yl]-2-[(3R,5S)-3,4,5-trimethylpiperazin-1-yl]phenyl]-1-methyl-6-oxo-4-(trifluoromethyl)pyridine-3-carboxamide] stands 5.66 nM.
The same measure for `C[C@@H]1CN(c2cc(F)c(-c3csc(C(=O)N4CCN(C)CC4)n3)cc2NC(=O)c2cn(C)c(=O)cc2C(F)(F)F)C[C@H](C)N1C` [Example 528, N-[4-fluoro-5-[2-(4-methylpiperazine-1-carbonyl)-1,3-thiazol-4-yl]-2-[(3R,5S)-3,4,5-trimethylpiperazin-1-yl]phenyl]-1-methyl-6-oxo-4-(trifluoromethyl)pyridine-3-carboxamide]: 4.05 nM; for `C[C@@H]1CN(c2cc(F)c(-c3csc(C(=O)NCC4CC4)n3)cc2NC(=O)c2c[nH]c(=O)cc2C(F)(F)F)C[C@H](C)N1C` [Example 531, N-(cyclopropylmethyl)-4-[2-fluoro-5-[[6-oxo-4-(trifluoromethyl)-1H-pyridine-3-carbonyl]amino]-4-[(3R,5S)-3,4,5-trimethylpiperazin-1-yl]phenyl]-1,3-thiazole-2-carboxamide]: 1.06 nM.
Regarding `C[C@@H]1CN(c2cc(F)c(-c3csc(C(=O)NC4CCCCC4)n3)cc2NC(=O)c2c[nH]c(=O)cc2C(F)(F)F)C[C@H](C)N1C` [Example 533, N-cyclohexyl-4-[2-fluoro-5-[[6-oxo-4-(trifluoromethyl)-1H-pyridine-3-carbonyl]amino]-4-[(3R,5S)-3,4,5-trimethylpiperazin-1-yl]phenyl]-1,3-thiazole-2-carboxamide], the Kd came out at 1.98 nM.
With `C[C@@H]1CN(c2cc(F)c(-c3csc(C(=O)N(C)C4CCCCC4)n3)cc2NC(=O)c2c[nH]c(=O)cc2C(F)(F)F)C[C@H](C)N1C` [Example 534, N-cyclohexyl-4-[2-fluoro-5-[[6-oxo-4-(trifluoromethyl)-1H-pyridine-3-carbonyl]amino]-4-[(3R,5S)-3,4,5-trimethylpiperazin-1-yl]phenyl]-N-methyl-1,3-thiazole-2-carboxamide], the Kd is 1.31 nM.
Under `C[C@@H]1CN(c2cc(F)c(-c3csc(C(=O)N4CCOCC4)n3)cc2NC(=O)c2c[nH]c(=O)cc2C(F)(F)F)C[C@H](C)N1C` [Example 535, N-[4-fluoro-5-[2-(morpholine-4-carbonyl)-1,3-thiazol-4-yl]-2-[(3R,5S)-3,4,5-trimethylpiperazin-1-yl]phenyl]-6-oxo-4-(trifluoromethyl)-1H-pyridine-3-carboxamide] stands 2.8 nM; under `C[C@@H]1CN(c2cc(F)c(-c3csc(C(=O)N4CCN(C)CC4)n3)cc2NC(=O)c2c[nH]c(=O)cc2C(F)(F)F)C[C@H](C)N1C` [Example 536, N-[4-fluoro-5-[2-(4-methylpiperazine-1-carbonyl)-1,3-thiazol-4-yl]-2-[(3R,5S)-3,4,5-trimethylpiperazin-1-yl]phenyl]-6-oxo-4-(trifluoromethyl)-1H-pyridine-3-carboxamide], 1.03 nM.
The same measure for `C[C@@H]1CN(c2cc(F)c(-c3ccnc(NC4CCCCC4)n3)cc2NC(=O)c2c[nH]c(=O)cc2C(F)(F)F)C[C@H](C)N1C` [Example 537, N-[5-[2-(cyclohexylamino)pyrimidin-4-yl]-4-fluoro-2-[(3R,5S)-3,4,5-trimethylpiperazin-1-yl]phenyl]-6-oxo-4-(trifluoromethyl)-1H-pyridine-3-carboxamide]: 0.944 nM.
